Results reported in patent publication US12397026B2, “Dietary supplement” (SOCIÉTÉ DES PRODUITS NESTLÉ S.A., priority 2015, dated 2025).

Test system: probiotic bacteria preblend (Lactobacillus rhamnosus GG1 and Bifidobacterium lactis BB12)
Assay type: cell-based
Conditions: iron fortifying agent combined with probiotic bacteria
Procedure: For practical reasons (accuracy in weighed amount), the amounts have been multiplied by 5.
Five preparations containing various iron fortifying agents and probiotic bacteria, and a control composition containing pro biotic bacteria and no iron fortifying agent were tested, as follows:
For each preparation, the required amount of iron fortificant was weighed. The iron fortificant was mixed with the specified amount of diluent TS+, i.e., a reconstitution solution with Tryptone, Sodium Chloride and Antifoam at 37° C. having the following composition:
The mixture was agitated until complete homogenization of the solution (3 min).
The probiotic bacteria preblend (PP036) was added and the mixture agitated for 1 min.
Each of the six preparations were analysed in triplicate.
Bacterial viability was determined immediately after preparation by plating of serial dilutions and subsequent counting of colony forming units. […] The principle of the method is the following: • Samples containing probiotics are weighed, rehydrated in a diluent (TS+) and homogenized by stomaching. • Serial decimal dilutions are performed in the same diluent (TS+) • 1 mL of each appropriate dilution is transferred to Petri dishes and mixed with a specific agar (pour-plate method) • The inoculated solidified agar plates are incubated under specific conditions enabling colony formation by the target bacteria (selective enumeration) • Colonies are counted and results are calculated and expressed in colony forming units per gram of sample (CFU/g).

| Substance | Effect on viability of probiotic bacteria (in words) |
| --- | --- |
| ferric ammonium citrate | caused a significant loss of bacteria viability |
| ferrous bisglycinate | caused a significant loss of bacteria viability |
| ferrous sulfate | caused a significant loss of bacteria viability |
| ferric pyrophosphate | does not decrease bacterial viability |
